Measured values reported in patent publication US9402842B2, “Synthesis and use of dual tyrosyl-DNA phosphodiesterase I (Tdp1)—topoisomerase I (Top1) inhibitors” (Purdue Research Foundation, priority 2012, dated 2016).
Structures can show the parent of a compound that is named as a salt. Where two headings read alike, the source gives them in different places.

Tests used:
[1] = biological target: recombinant human Tdp1 (Homo sapiens (Human), UniProt Q9NUW8); test: Gel-based assay measuring the inhibition of recombinant Tdp1; type: biochemical; settings: for IC50: read-out: Tdp1 (semiquantitative IC50 scale)
Sequence of recombinant human Tdp1 (Q9NUW8 whole entry): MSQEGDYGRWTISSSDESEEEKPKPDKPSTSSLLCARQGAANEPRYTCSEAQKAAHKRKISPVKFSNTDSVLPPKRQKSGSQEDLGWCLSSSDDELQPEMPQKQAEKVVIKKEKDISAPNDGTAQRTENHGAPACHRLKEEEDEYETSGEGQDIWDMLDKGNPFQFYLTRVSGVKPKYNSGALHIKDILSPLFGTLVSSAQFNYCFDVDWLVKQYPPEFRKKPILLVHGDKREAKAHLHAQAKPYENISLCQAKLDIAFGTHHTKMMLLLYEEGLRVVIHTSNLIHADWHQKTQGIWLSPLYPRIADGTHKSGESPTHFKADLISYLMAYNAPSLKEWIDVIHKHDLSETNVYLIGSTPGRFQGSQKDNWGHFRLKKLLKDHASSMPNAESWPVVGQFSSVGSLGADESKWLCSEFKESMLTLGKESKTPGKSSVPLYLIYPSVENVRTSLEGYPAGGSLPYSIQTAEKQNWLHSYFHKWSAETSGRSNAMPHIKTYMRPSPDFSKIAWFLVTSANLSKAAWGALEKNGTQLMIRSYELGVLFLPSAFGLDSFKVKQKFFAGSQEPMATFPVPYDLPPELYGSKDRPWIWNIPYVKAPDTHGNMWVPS
Procedure: Tdp1 inhibitory activity was measured by the drug's ability to inhibit the hydrolysis of the phosphodiester linkage between tyrosine and the 3′-end of the DNA substrate, and to prevent the generation of an oligonucleotide with a free 3′-phosphate (N14P). Therefore, the disappearance of the gel band for N14P indicated Tdp1 inhibition.
Gel-based Assay Measuring the Inhibition of Recombinant Tdp1.
A 5′-[^32P]-labeled single-stranded DNA oligonucleotide containing a 3′-phosphotyrosine (N14Y) was generated as described by Dexheimer et al. The DNA substrate was then incubated with 5 pM recombinant Tdp1 in the absence or presence of inhibitor for 15 min at room temperature in a buffer containing 50 mM Tris HCl, pH 7.5, 80 mM KCl, 2 mM EDTA, 1 mM DTT, 40 μg/ml BSA and 0.01% Tween-20. […] Gel images were scanned using a Typhoon 8600 (GE Healthcare) and densitometric analyses were performed using the ImageQuant software (GE Healthcare).

[2] = tested on: all human cancer cell lines successfully tested; test: NCI screen, mean graph midpoint (MGM) for growth inhibition; type: cell-based; settings: for GI50: read-out: MGM GI50
[3] = tested on: SN12C; test: NCI screen cytotoxicity, renal SN12C; settings: read-out: Cytotoxicity (GI50 in μM) renal SN12C; 50% growth inhibition
[4] = tested on: HCT-116; test: NCI screen cytotoxicity, colon HCT-116; settings: read-out: Cytotoxicity (GI50 in μM) colon HCT-116; 50% growth inhibition
[5] = tested on: SF-539; test: NCI screen cytotoxicity, CNS SF-539; settings: read-out: Cytotoxicity (GI50 in μM) CNS SF-539; 50% growth inhibition
[6] = tested on: HOP-62; test: NCI screen cytotoxicity, lung HOP-62; settings: read-out: Cytotoxicity (GI50 in μM) lung HOP-62; 50% growth inhibition
[7] = tested on: MDA-MB-435; test: NCI screen cytotoxicity, breast MDA-MB-435; settings: read-out: Cytotoxicity (GI50 in μM) breast MDA-MB-435; 50% growth inhibition
[8] = tested on: DU-145; test: NCI screen cytotoxicity, prostate DU-145; settings: read-out: Cytotoxicity (GI50 in μM) prostate DU-145; 50% growth inhibition
[9] = tested on: OVCAR-3; test: NCI screen cytotoxicity, ovarian OVCAR-3; settings: read-out: Cytotoxicity (GI50 in μM) ovarian OVCAR-3; 50% growth inhibition
[10] = tested on: UACC-62; test: NCI screen cytotoxicity, melanoma UACC-62; settings: read-out: Cytotoxicity (GI50 in μM) melanoma UACC-62; 50% growth inhibition
[11] = biological target: human recombinant Top1 (Homo sapiens (Human), UniProt P11387); test: Topoisomerase I-mediated DNA cleavage reactions; design: Top1 inhibition (text of part A): key to the marks not given beside the values; settings: for Top1, compound-induced DNA cleavage due to Top1 inhibition: semiquantitative scale relative to 1 μM camptothecin (90) or MJ-III-65 (91)
Sequence of human recombinant Top1 (P11387 whole entry): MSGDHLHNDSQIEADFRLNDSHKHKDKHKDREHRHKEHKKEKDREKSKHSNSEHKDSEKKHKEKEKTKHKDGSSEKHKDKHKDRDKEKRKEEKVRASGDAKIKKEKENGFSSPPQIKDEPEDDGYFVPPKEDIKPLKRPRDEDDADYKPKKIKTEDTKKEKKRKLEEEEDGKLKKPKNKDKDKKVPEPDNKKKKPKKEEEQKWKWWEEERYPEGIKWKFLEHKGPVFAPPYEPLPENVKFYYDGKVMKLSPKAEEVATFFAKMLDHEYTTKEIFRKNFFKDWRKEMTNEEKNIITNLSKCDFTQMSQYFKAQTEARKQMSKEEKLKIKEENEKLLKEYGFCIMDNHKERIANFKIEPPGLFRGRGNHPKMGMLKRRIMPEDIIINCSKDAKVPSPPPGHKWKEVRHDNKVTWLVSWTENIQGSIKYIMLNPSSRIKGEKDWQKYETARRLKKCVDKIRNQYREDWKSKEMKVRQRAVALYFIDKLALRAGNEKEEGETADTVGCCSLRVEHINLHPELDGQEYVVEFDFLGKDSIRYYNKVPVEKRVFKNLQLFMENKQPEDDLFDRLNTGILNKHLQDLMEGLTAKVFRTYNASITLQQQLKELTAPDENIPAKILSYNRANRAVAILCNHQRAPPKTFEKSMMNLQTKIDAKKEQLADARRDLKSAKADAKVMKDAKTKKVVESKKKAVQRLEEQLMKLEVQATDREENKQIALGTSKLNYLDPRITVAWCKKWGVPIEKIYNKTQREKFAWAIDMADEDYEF

[12] = tested on: single-stranded DNA substrate; test: Surface plasmon resonance, binding to single-stranded DNA substrate; settings: SPR
[13] = Homo sapiens, read-out: MGM (μM)

Compound: COc1ccc2c(c1)C(=O)c1c-2n(CCCN)c(=O)c2cc(N)ccc12 [Compound 89 of (B), 3-Amino-6-(3-aminopropyl)-5,6-dihydro-9-methoxy-5,11-dioxo-11H-indeno[1,2-c]isoquinoline Dihydrochloride]
- IC50 ([1]; determined by duplicate): 1 to 12 µM
- IC50 [2, 13]: 0.04 µM

Compound: CCOC(=O)CNc1ccc2c3c(n(CCCN)c(=O)c2c1)-c1ccccc1C3=O [Compound 40 of (B), Ethyl 2-[(6-(3-Aminopropyl)-5,11-dioxo-6,11-dihydro-5H-indeno[1,2-c]isoquinolin-3-yl)amino]acetate Hydrochloride]
- GI50 [3]: 1.75 µM
- GI50 [4]: 0.44 µM
- GI50 [5]: 8.91 µM
- GI50 [6]: 0.93 µM
- GI50 [7]: 3.05 µM
- IC50 [2, 13]: 1.69 µM
- GI50 [8]: 1.68 µM
- GI50 [9]: 3.12 µM
- GI50 [10]: 2.25 µM

Compound: COC(=O)CCCC(=O)Nc1ccc2c3c(n(CCCN)c(=O)c2c1)-c1ccccc1C3=O [Compound 25 of (B), Methyl 5-[(6-(3-Aminopropyl)-5,11-dioxo-6,11-dihydro-5H-indeno[1,2-c]isoquinolin-3-yl)amino]-5-oxopentanoate]
- IC50 ([1]; determined by duplicate): 37 to 111 µM
- IC50 [2, 13]: 1.09 µM
- Top1, compound-induced DNA cleavage due to Top1 inhibition [11]: 0

Compound: COc1ccc2c(c1)-c1c(c3ccc([N+](=O)[O-])cc3c(=O)n1CCCN)C2=O.Cl [Compound 51 of (B), 6-(3-Aminopropyl)-5,6-dihydro-8-methoxy-3-nitro-5,11-dioxo-11H-indeno[1,2-c]isoquinoline Hydrochloride]
- GI50 [3]: 0.15 µM
- GI50 [4]: 0.06 µM
- GI50 [5]: 0.61 µM
- IC50 [1]: 12 to 37 µM
- GI50 [7]: 0.58 µM
- IC50 [2, 13]: 0.17 ± 0.017 µM
- Top1, compound-induced DNA cleavage due to Top1 inhibition [11]: ++
- GI50 [8]: 0.18 µM
- GI50 [9]: 0.54 µM

Compound: (6-Methyl-5,11-dioxo-6,11-dihydro-5H-indeno[1,2-c]isoquinolin-3-yl)-carbamic Acid [Compound 14 of (B)]
- binding to the single-stranded DNA substrate [12]: did not bind
- Top1, compound-induced DNA cleavage due to Top1 inhibition [11]: ++

Compound: NCCCn1c2c(c3ccc(N)cc3c1=O)C(=O)c1ccccc1-2 [Compound 62 of (B)]
- GI50 [3]: 0.23 µM
- GI50 [4]: 0.18 µM
- GI50 [5]: 0.34 µM
- GI50 [6]: 0.27 µM
- GI50 [7]: 0.23 µM
- IC50 [2, 13]: 0.16 µM
- GI50 [8]: 0.12 µM
- GI50 [9]: 0.13 µM
- GI50 [10]: 0.3 µM

Compound: COC(=O)CCCCC(=O)Nc1ccc2c3c(n(CCCN)c(=O)c2c1)-c1ccccc1C3=O [Compound 26 of (B), Methyl 6-[(6-(3-Aminopropyl)-5,11-dioxo-6,11-dihydro-5H-indeno[1,2-c]isoquinolin-3-yl)amino]-6-oxohexanoate]
- IC50 ([1]; determined by duplicate): 37 to 111 µM
- IC50 [2, 13]: 2.34 µM
- Top1, compound-induced DNA cleavage due to Top1 inhibition [11]: (+)

Compound: O=C1c2ccccc2-c2c1c1ccc([N+](=O)[O-])cc1c(=O)n2CCCO [Compound 63 of (B)]
- GI50 [3]: 0.47 µM
- GI50 [4]: 0.19 µM
- GI50 [7]: 1.97 µM
- IC50 [2, 13]: 0.89 ± 0.22 µM
- GI50 [8]: 0.43 µM
- GI50 [9]: 0.87 µM
- GI50 [10]: 0.31 µM

Compound: CS(=O)(=O)NCCCCCCCCCCCn1c2c(c3ccccc3c1=O)C(=O)c1ccccc1-2 [Compound 89, N-(11-(5,11-Dioxo-5H-indeno[1,2-c]isoquinolin-6(11H)-yl)undecyl)-methanesulfonamide]
- GI50 ([2]; Homo sapiens): 40 nM
- Top1, compound-induced DNA cleavage due to Top1 inhibition [11]: ++

Compound: COc1ccc2c(c1)-c1c(c3ccc([N+](=O)[O-])cc3c(=O)n1CCCn1ccnc1)C2=O [Compound 52 of (B), 6-(3-(1H-Imidazol-1-yl)propyl)-8-methoxy-3-nitro-5H-indeno[1,2-c]isoquinoline-5,11(6H)-dione]
- GI50 [3]: < 0.01 µM
- GI50 [4]: < 0.01 µM
- Tdp1 (semiquantitative IC50 scale) [1]: (+)
- GI50 [6]: < 0.01 µM
- GI50 [7]: 0.03 µM
- IC50 ([2]; mean graph midpoint for growth inhibition of all human cancer cell lines successfully tested, read-out: MGM): 0.02 ± 0.0006 µM
- suppression of Top1-mediated DNA cleavage at high drug concentration ([11]; high concentration of 100 μM): slight suppression
- Top1, compound-induced DNA cleavage due to Top1 inhibition [11]: +++
- GI50 [8]: < 0.01 µM
- GI50 [9]: 0.03 µM
- GI50 [10]: < 0.01 µM

Compound: Cl.NCCCn1c2c(c3ccc(NCC(=O)O)cc3c1=O)C(=O)c1ccccc1-2 [Compound 43 of (B), 2-((6-(3-Aminopropyl)-5,11-dioxo-6,11-dihydro-5H-indeno[1,2-c]isoquinolin-3-yl)amino)acetic Acid Hydrochloride]
- GI50 [3]: 0.49 µM
- GI50 [4]: 0.33 µM
- GI50 [5]: 1.79 µM
- IC50 ([1]; determined by duplicate): 1 to 12 µM
- GI50 [6]: 0.65 µM
- GI50 [7]: 1.14 µM
- IC50 [2, 13]: 0.87 ± 0.014 µM
- Top1, compound-induced DNA cleavage due to Top1 inhibition [11]: 0
- GI50 [8]: 1.51 µM
- GI50 [9]: 1.6 µM
- GI50 [10]: 0.72 µM

Compound: COc1ccc2c(c1)C(=O)c1c-2n(CCCN)c(=O)c2cc([N+](=O)[O-])ccc12 [Compound 54 of (B)]
- GI50 [3]: < 0.01 µM
- GI50 [4]: < 0.01 µM
- GI50 [6]: < 0.01 µM
- IC50 [2, 13]: 0.02 ± 0.0008 µM
- GI50 [10]: < 0.01 µM

Compound: COC(=O)C(=O)Nc1ccc2c3c(n(CCCN)c(=O)c2c1)-c1ccccc1C3=O [Compound 22 of (B), Methyl 2-[(6-(3-Aminopropyl)-5,11-dioxo-6,11-dihydro-5H-indeno[1,2-c]isoquinolin-3-yl)amino]-2-oxoacetate]
- IC50 [2, 13]: 1.86 ± 0.38 µM
- Top1, compound-induced DNA cleavage due to Top1 inhibition [11]: 0

Compound: O=C(O)C(F)(F)F.O=C(O)C(F)(F)F.O=C1c2ccccc2-c2c1c1ccccc1c(=O)n2CCCNCCCNCCCn1c2c(c3ccccc3c1=O)C(=O)c1ccccc1-2 [Compound 145, Bis-1,3-{(5,6-dihydro-5,11-diketo-11H-indeno[1,2-c]isoquinoline)-6-propyl-amino}propane Bis(trifluoroacetate)]
- GI50 ([2]; mean graph midpoint, NCI cancer cell line screen): 394 nM
- Top1 inhibition (text of part A) ([11]; semiquantitative scale relative to 1 μM camptothecin): ++++
